Data on 16 molecules can be found in patent US9388171B2, “Serine/threonine kinase inhibitors” (Array BioPharma Inc., priority 2012, dated 2016).

Each structure is given as a SMILES string. Where two headings read alike, the source gives them in different places.

Assay [1] addresses human ERK-2 (Mitogen Activated Kinase 1) (Homo sapiens (Human), UniProt P28482). As to the kind of experiment: ERK-2 Enzymatic Assay. In kind it is biochemical. The procedure:
Compounds were tested in an enzymatic assay using human ERK-2 (Mitogen Activated Kinase 1), recombinantly expressed as an n-terminal 6-His fusion protein in E. coli and corresponding to a 8-360. The substrate used was the fluorescent Omnia peptide S/T17 (Invitrogen of Carlsbad, Calif.; Cat. KNZ1171C). Test compounds were diluted in DMSO in 3-fold serial dilutions at 100× final concentrations. […] The assay was run at ambient temperature in a white 384-well polypropylene plate (Nunc, Inc of Naperville, Ill.; Cat. 267462) collecting data every 50 seconds for approximately 30 minutes on an Envision plate reader (PerkinElmer, Inc. of Waltham, Mass.); Excitation 340 nm/Emission 495 nm. The data collected from each well was fit to a straight line, and the resulting rates were used to calculate percent of control. Percent of control was plotted against compound concentration, and IC50 values were determined using a four-parameter fit. Representative data is in TABLE 3 (infra).

For assay [2], the system named is PMA-stimulated P90RSK(Ser380) phosphorylation in HepG2 cells. As to the kind of experiment: Cellular P90RSK(Ser380) Phosphorylation Assay. The assay is classed as cell-based. The conditions noted are these: Homo sapiens, 1.5 hour compound incubation, PMA 100 ng/mL. On the procedure: Cellular P90RSK(Ser380) Phosphorylation Assay
Inhibition of PMA-stimulated P90RSK(Ser380) phosphorylation was determined by the following in vitro cellular mechanistic assay, which comprises incubating cells with a compound for 1.5 hours and quantifying fluorescent pP90RSK(Ser380) signal on fixed cells and normalizing to GAPDH signal.
Materials and Methods: HepG2 cells were obtained from ATCC and grown in DMEM supplemented with 10% fetal bovine serum. Cells were plated in 96-well plates at 35,000 cells/well and allowed to attach overnight at 37° C./5% CO2. Diluted compounds were then added at a final concentration of 0.5% DMSO. After 1.5 hour compound incubation, cells were stimulated with the addition of PMA (phorbol 12-myristate 13-acetate) at a final concentration of 100 ng/mL; the PMA stimulation was a 30-minute incubation at 37° C./5% CO2. After the 30-minute PMA stimulation, cells were washed with PBS and fixed in 3.7% formaldehyde in PBS at room temperature for 15-20 minutes. This was followed by another wash in PBS and then permeabilization in 100% MeOH at room temperature for 10-15 minutes. Following the permeabilization incubation, cells were washed in PBS/0.05% Tween-20, followed by a block in Odyssey blocking buffer (LI-COR Biosciences) for at least 1 hour. […] Both secondary antibodies were used at a 1:1000 dilution. Cells were then washed and analyzed for fluorescence at both wavelengths using the Odyssey Infrared Imaging System (LI-COR Biosciences). Phosphorylated P90RSK(Ser380) signal was normalized to GAPDH signal.

Where [3] appears, read: 25 uM ATP, Omnia peptide S/T17, read-out: Erk Enzymatic Assay IC50.

Chain of human ERK-2 (Mitogen Activated Kinase 1) (P28482 8-360): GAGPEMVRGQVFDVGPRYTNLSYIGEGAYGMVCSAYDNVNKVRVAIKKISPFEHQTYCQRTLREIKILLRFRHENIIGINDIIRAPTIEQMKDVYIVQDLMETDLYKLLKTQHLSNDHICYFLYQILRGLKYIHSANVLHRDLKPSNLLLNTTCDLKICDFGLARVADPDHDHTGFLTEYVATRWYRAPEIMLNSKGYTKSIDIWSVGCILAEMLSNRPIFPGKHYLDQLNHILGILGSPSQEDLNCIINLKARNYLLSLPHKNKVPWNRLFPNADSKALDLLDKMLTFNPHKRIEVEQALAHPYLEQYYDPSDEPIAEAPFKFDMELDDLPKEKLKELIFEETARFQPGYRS

In the case of `COc1ccc([C@H](NC(=O)c2ccc3cnc(N[C@H]4CCOC4)cc3n2)c2cnn(C)c2)cc1F` (single isomer, unassigned) [I-52], in assay [1] (read-out: ERK IC50), the IC50 (as a rule, the midpoint of a concentration-inhibition curve) stood at 1.27 nM.
`COc1ccc([C@H](NC(=O)c2ccc3cnc(N[C@@H]4CCOC4)cc3n2)c2cnn(C)c2)cc1F` (single isomer, unassigned) [I-53]: the IC50 in assay [1] (read-out: ERK IC50) was 2.75 nM.
For `O=C(N[C@H](CO)c1ccc(Cl)c(F)c1)c1ccc2cnc(NC3CCOCC3)cc2n1` [I-5, 7-(Tetrahydro-pyran-4-ylamino)-[1,6]naphthyridine-2-carboxylic acid [(S)-1-(4-chloro-3-fluoro-phenyl)-2-hydroxy-ethyl]-amide], the IC50 in assay [1] (setting [3]) amounted to 4.04 nM; in assay [2] it was 16.3 nM.
For `CC[C@@H](NC(=O)c1ccc2cnc(NC3CCOCC3)cc2n1)c1ccc(OC)c(F)c1` [I-6, 7-(Tetrahydro-pyran-4-ylamino)-[1,6]naphthyridine-2-carboxylic acid [(R)-1-(3-fluoro-4-methoxy-phenyl)-propyl]-amide] the same measures were 2.1 nM and 5.96 nM.
In assay [2], `Cn1nccc1Nc1cc2nc(C(=O)N[C@H](CO)c3ccc(Cl)c(F)c3)ccc2cn1` [I-8, 7-(2-Methyl-2H-pyrazol-3-ylamino)-[1,6]naphthyridine-2-carboxylic acid [(S)-1-(4-chloro-3-fluoro-phenyl)-2-hydroxy-ethyl]-amide] yielded an IC50 of 9.84 nM.
On to `O=C(NCc1ccc(Cl)c(F)c1)c1ccc2cnc(NC3CCOCC3)cc2n1` [I-11, 7-(Tetrahydro-pyran-4-ylamino)-[1,6]naphthyridine-2-carboxylic acid 4-chloro-3-fluoro-benzylamide], for which the figures for the IC50 in assay [1] (setting [3]) and in assay [2] were 3.43 nM and 98.9 nM, respectively.
For `COc1ccc([C@H](NC(=O)c2ccc3cnc(NC4CCOCC4)cc3n2)c2cnn(C)c2)cc1F` [I-21, (S)—N-((3-Fluoro-4-methoxyphenyl)(1-methyl-1H-pyrazol-4-yl)methyl)-7-(tetrahydro-2H-pyran-4-ylamino)-1,6-naphthyridine-2-carboxamide] the same measures were 1.86 nM and 18.7 nM.
In the same order, the values of `COc1ccc([C@H](NC(=O)c2ccc3cnc(N[C@@H](C)CO)cc3n2)c2cnn(C)c2)cc1F` [I-24, N—((S)-(3-Fluoro-4-methoxyphenyl)(1-methyl-1H-pyrazol-4-yl)methyl)-7-((S)-1-hydroxypropan-2-ylamino)-1,6-naphthyridine-2-carboxamide] are 1.15 nM and 37.8 nM.
In the same order, the values of `O=C(NCCc1ccccc1)c1ccc2cnc(NC3CCOCC3)cc2n1` [I-30, 7-(Tetrahydro-pyran-4-ylamino)-[1,6]naphthyridine-2-carboxylic acid phenethyl-amide] are 5.95 nM and 476 nM.
As to `CC[C@@H](NC(=O)c1ccc2cnc(NC3CCOCC3)cc2c1)c1ccc(Cl)c(F)c1` [II-2, 3-(Tetrahydro-pyran-4-ylamino)-isoquinoline-6-carboxylic acid [(R)-1-(4-chloro-3-fluoro-phenyl)-propyl]-amide], the half-inhibitory concentration (IC50) turned out to be 2.5 nM in assay [1] (setting [3]) and 8.5 nM in assay [2].
In the same order, the values of `O=C(N[C@H](CO)c1ccc(Cl)c(F)c1)c1ccc2cnc(NC3CCOCC3)cc2c1` [II-12, 3-(Tetrahydro-pyran-4-ylamino)-isoquinoline-6-carboxylic acid [(S)-1-(4-chloro-3-fluoro-phenyl)-2-hydroxy-ethyl]-amide] are 2.8 nM and 14.8 nM.
Turning to `Cn1cc([C@@H](NC(=O)c2ccc3cnc(Nc4ccnn4C)cc3c2)c2ccc(Cl)c(F)c2)cn1` [II-15, (S)—N-((4-Chloro-3-fluorophenyl)(1-methyl-1H-pyrazol-4-yl)methyl)-3-(1-methyl-1H-pyrazol-5-ylamino)isoquinoline-6-carboxamide], the results for the IC50 in assay [1] (setting [3]) and in assay [2] were 2.29 nM and 9.97 nM, respectively.
In the same order, the values of `C[C@@H](CO)Nc1cc2cc(C(=O)NCc3cc4c(F)cccc4[nH]3)ccc2cn1` [II-23, 3-((S)-2-Hydroxy-1-methyl-ethylamino)-isoquinoline-6-carboxylic acid (4-fluoro-1H-indol-2-ylmethyl)-amide] are 20.2 nM and 65.1 nM.
Take `COc1ccc([C@H](NC(=O)c2ccc3cnc(Nc4cc(C)nn4C)cc3c2)c2cnn(C)c2)cc1F` [II-37, (S)-3-(1,3-Dimethyl-1H-pyrazol-5-ylamino)-N-((3-fluoro-4-methoxyphenyl)(1-methyl-1H-pyrazol-4-yl)methyl)isoquinoline-6-carboxamide]: the IC50 in assay [1] (setting [3]) is 4.6 nM; in assay [2], 30.4 nM.
`CC[C@@H](NC(=O)c1ccc2cnc(Nc3cc(C)nn3C)cc2c1)c1ccc(Cl)c(F)c1` [II-46, (R)—N-(1-(4-Chloro-3-fluorophenyl)propyl)-3-(1,3-dimethyl-1H-pyrazol-5-ylamino)isoquinoline-6-carboxamide]: the IC50 in assay [1] (setting [3]) was 6.5 nM; in assay [2], 15.7 nM.
In the same order, the values of `COc1ccc([C@@H]2CN(C)C[C@H]2NC(=O)c2ccc3cnc(Nc4cc(C)nn4C)cc3c2)cc1` [II-64, 3-((1,3-dimethyl-1H-pyrazol-5-yl)amino)-N-((3S,4R)-4-(4-methoxyphenyl)-1-methylpyrrolidin-3-yl)isoquinoline-6-carboxamide] are 2.68 nM and 5.47 nM.
